According to ChEMBL document CHEMBL6134905, “Double Swords in One: Novel Selective PI3K/110β PROTAC Degraders for the Treatment of Multidrug-Resistant Cancer by Activating ERS and Inhibiting P-gp” (J Med Chem, 2025):
pIC50: −log10 of the molar value. Active and inactive are the calls of the source. The calls are words filed in the database; no cut-off is given here.

Legend:
[1] = target: T1, von Hippel-Lindau disease tumor suppressor/Phosphatidylinositol 4,5-bisphosphate 3-kinase catalytic subunit beta isoform (Homo sapiens, UniProt P42338+P40337); test: PROTAC activity at PI3K-p110beta/VHL in human A549/DDP cells assessed as reduction in PI3K-p110beta level at 25 uM incubated for 24 hrs by Western blot analysis relative to control; format: cell-based; parameters: scale not given: the % may be the effect or the level left
Target sequence in this assay (P40337 whole entry, looked up, canonical isoform): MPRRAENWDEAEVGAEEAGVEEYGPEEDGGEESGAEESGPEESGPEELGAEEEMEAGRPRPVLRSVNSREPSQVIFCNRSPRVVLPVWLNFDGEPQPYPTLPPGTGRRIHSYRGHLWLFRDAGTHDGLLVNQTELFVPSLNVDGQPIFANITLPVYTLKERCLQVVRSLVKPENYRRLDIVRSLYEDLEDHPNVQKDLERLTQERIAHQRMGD
Target sequence in this assay (P42338 whole entry, looked up, canonical isoform): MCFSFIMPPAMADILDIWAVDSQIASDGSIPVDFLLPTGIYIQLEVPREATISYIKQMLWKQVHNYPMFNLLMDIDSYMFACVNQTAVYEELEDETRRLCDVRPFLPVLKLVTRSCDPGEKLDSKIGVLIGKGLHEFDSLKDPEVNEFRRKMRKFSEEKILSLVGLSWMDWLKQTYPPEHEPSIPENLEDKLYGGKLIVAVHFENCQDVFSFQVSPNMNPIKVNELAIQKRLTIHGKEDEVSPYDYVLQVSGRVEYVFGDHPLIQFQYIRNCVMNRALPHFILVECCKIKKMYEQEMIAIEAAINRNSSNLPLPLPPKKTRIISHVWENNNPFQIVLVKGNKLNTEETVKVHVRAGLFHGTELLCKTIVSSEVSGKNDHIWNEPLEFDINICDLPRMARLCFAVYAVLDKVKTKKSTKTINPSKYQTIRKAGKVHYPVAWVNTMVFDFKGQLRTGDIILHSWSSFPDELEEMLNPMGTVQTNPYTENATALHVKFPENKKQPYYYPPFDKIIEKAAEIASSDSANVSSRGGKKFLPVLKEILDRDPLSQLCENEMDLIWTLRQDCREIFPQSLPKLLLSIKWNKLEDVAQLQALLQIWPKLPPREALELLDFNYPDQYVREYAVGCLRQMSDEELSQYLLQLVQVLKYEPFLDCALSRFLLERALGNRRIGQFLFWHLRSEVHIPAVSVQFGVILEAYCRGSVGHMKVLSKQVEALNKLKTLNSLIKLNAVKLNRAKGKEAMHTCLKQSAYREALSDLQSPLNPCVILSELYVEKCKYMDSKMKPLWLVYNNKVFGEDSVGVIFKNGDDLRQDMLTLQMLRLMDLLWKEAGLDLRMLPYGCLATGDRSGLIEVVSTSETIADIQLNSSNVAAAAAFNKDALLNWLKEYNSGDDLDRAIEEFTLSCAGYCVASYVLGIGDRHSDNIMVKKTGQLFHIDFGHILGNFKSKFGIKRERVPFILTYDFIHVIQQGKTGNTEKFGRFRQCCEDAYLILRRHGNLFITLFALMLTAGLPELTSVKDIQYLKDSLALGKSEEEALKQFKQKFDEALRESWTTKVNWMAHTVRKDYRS

[2] = target: T2, von Hippel-Lindau disease tumor suppressor/Phosphatidylinositol 4,5-bisphosphate 3-kinase catalytic subunit alpha isoform (Homo sapiens, UniProt P42336+P40337); test: PROTAC activity at PI3K-p110alpha/VHL in human A549/DDP cells assessed as induction of PI3K-p110alpha degradation incubated for 24 hrs by Western blot analysis; format: cell-based; details: for Activity: dose 0.04-50 µM
[3] = target: T1, von Hippel-Lindau disease tumor suppressor/Phosphatidylinositol 4,5-bisphosphate 3-kinase catalytic subunit beta isoform; test: PROTAC activity at PI3K-p110beta/VHL in human A549/DDP cells assessed as reduction in PI3K-p110beta level incubated for 24 hrs by Western blot analysis; format: cell-based
[4] = target: T2, von Hippel-Lindau disease tumor suppressor/Phosphatidylinositol 4,5-bisphosphate 3-kinase catalytic subunit alpha isoform; test: PROTAC activity at PI3K-p110alpha/VHL in human MCF7/ADM cells assessed as induction of PI3K-p110alpha degradation incubated for 24 hrs by Western blot analysis; format: cell-based
Target sequence in this assay (P42336 whole entry, canonical isoform): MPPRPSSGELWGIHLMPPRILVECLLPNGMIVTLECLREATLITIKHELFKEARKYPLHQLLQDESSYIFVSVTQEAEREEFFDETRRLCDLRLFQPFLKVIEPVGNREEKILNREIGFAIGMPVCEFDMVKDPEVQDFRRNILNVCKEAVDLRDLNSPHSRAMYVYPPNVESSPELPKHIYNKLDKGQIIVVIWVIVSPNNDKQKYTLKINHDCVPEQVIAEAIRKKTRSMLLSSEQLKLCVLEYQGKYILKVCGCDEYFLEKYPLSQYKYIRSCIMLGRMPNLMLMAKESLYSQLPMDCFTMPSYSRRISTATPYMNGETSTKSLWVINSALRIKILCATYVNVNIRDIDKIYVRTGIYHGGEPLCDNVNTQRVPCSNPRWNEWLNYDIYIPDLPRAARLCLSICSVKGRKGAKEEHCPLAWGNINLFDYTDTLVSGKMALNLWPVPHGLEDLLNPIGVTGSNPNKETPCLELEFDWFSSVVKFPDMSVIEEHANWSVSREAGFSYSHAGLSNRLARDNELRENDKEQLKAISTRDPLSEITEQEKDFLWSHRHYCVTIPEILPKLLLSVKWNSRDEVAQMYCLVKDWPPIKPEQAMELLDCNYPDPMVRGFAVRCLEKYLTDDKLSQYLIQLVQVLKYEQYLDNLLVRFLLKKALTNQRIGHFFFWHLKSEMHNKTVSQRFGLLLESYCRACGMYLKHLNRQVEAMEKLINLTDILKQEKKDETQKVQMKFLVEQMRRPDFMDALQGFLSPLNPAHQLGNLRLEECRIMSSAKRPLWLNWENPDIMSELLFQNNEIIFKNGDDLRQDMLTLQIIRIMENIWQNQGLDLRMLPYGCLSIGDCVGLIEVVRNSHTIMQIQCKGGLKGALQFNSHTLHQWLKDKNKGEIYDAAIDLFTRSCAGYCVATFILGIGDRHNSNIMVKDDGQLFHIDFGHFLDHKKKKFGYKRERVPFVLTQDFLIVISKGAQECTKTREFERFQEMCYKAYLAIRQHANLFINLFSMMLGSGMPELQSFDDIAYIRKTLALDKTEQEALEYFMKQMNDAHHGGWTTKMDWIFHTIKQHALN
Target sequence in this assay (P40337 whole entry, canonical isoform): as the sequence (P40337 whole entry, looked up, canonical isoform) above

[5] = target: T1, von Hippel-Lindau disease tumor suppressor/Phosphatidylinositol 4,5-bisphosphate 3-kinase catalytic subunit beta isoform; test: PROTAC activity at PI3K-p110beta/VHL in human MCF7/ADM cells assessed as reduction in PI3K-p110beta level incubated for 12 to 36 hrs by Western blot analysis; format: cell-based; details: time 12-36 hrs
Target sequence in this assay (P40337 whole entry, looked up, canonical isoform): as above
Target sequence in this assay (P42338 whole entry, looked up, canonical isoform): as the sequence (P42338 whole entry, looked up, canonical isoform) above

[6] = target: T1, von Hippel-Lindau disease tumor suppressor/Phosphatidylinositol 4,5-bisphosphate 3-kinase catalytic subunit beta isoform; test: PROTAC activity at PI3K-p110beta/VHL in human MCF7/ADM cells assessed as reduction in PI3K-p110beta level at 25 uM measured for 24 hrs by Western blot analysis; format: cell-based
Target sequence in this assay (P40337 whole entry, looked up, canonical isoform): as the sequence (P40337 whole entry, looked up, canonical isoform) above
Target sequence in this assay (P42338 whole entry, looked up, canonical isoform): as the sequence (P42338 whole entry, looked up, canonical isoform) above

[7] = target: T1, von Hippel-Lindau disease tumor suppressor/Phosphatidylinositol 4,5-bisphosphate 3-kinase catalytic subunit beta isoform; test: PROTAC activity at PI3K-p110beta/VHL in human A549/DDP cells assessed as reduction in PI3K-p110beta level at 25 uM measured for 24 hrs by Western blot analysis; format: cell-based
Target sequence in this assay (P40337 whole entry, looked up, canonical isoform): as the sequence (P40337 whole entry, looked up, canonical isoform) above
Target sequence in this assay (P42338 whole entry, looked up, canonical isoform): as the sequence (P42338 whole entry, looked up, canonical isoform) above

[8] = tested on: A549/CDDP; test: Antitumor activity against human A549/DDP cells assessed as cell viability incubated for 24 hrs by MTT assay; format: functional, cell-based
[9] = tested on: A549/CDDP; test: Induction of oxidative stress in human A549/DDP cells at 25 uM measured for 24 hrs; format: functional, cell-based
[10] = tested on: MCF7/ADM; test: Induction of ROS level in human MCF7/ADM cells at 25 uM measured for 24 hrs by MitoSOX staining based analysis; format: functional, cell-based
[11] = tested on: A549/CDDP; test: Induction of ROS level in human A549/DDP cells at 25 uM measured for 24 hrs by MitoSOX staining based analysis; format: functional, cell-based
[12] = tested on: Mitochondrial membrane; test: Induction of mitochondrial membrane potential loss in human A549/DDP cells assessed as increase in green fluorescence at 25 uM incubated for 48 hrs by JC-1 staining based flow cytometry
[13] = tested on: A549/CDDP; test: Induction of apoptosis in human A549/DDP cells at 6.25 uM incubated for 24 hrs by Annexin V-FITC/PI staining based flow cytometry analysis (reference value: 4.27%); format: functional
[14] = tested on: A549/CDDP; test: Induction of apoptosis in human A549/DDP cells at 25 uM incubated for 24 hrs in presence of TUDCA by Annexin V-FITC/PI staining based flow cytometry analysis (reference value: 4.27%); format: functional
[15] = tested on: A549/CDDP; test: Induction of apoptosis in human A549/DDP cells assessed as decrease in bax expression at 12.5 uM incubated for 24 hrs by Western blot analysis; format: functional, cell-based
[16] = tested on: A549/CDDP; test: Induction of apoptosis in human A549/DDP cells assessed as increase in cleaved caspase-3 expression at 12.5 uM incubated for 24 hrs by Western blot analysis; format: functional, cell-based
[17] = tested on: MCF7/ADM; test: Upregulation of PERK expression in human MCF7/ADM cells at 0.25 to 25 uM incubated for 24 hrs by Western blot analysis; format: functional, cell-based; details: dose 0.25-25 µM
[18] = tested on: A549/CDDP; test: Upregulation of ATF4 expression in human A549/DDP cells at 0.25 to 25 uM incubated for 24 hrs by Western blot analysis; format: functional, cell-based; details: dose 0.25-25 µM
[19] = tested on: A549/CDDP; test: Upregulation of CHOP expression in human A549/DDP cells at 0.25 to 25 uM incubated for 24 hrs by Western blot analysis; format: functional, cell-based; details: dose 0.25-25 µM
[20] = tested on: A549/CDDP; test: Upregulation of ATF6 expression in human A549/DDP cells at 0.25 to 25 uM incubated for 24 hrs by Western blot analysis; format: functional, cell-based; details: dose 0.25-25 µM
[21] = tested on: MCF7/ADM; test: Upregulation of p-IRE1 expression in human MCF7/ADM cells at 0.25 to 25 uM incubated for 24 hrs by Western blot analysis; format: functional, cell-based; details: dose 0.25-25 µM
[22] = target: ATP-dependent translocase ABCB1 (Homo sapiens, UniProt P08183); test: Inhibition of P-gp in human MCF7/ADM cells at 6.25 to 25 uM incubated for 24 hrs; format: cell-based; details: dose 6.25-25 µM
Chain of ATP-dependent translocase ABCB1 (P08183 whole entry): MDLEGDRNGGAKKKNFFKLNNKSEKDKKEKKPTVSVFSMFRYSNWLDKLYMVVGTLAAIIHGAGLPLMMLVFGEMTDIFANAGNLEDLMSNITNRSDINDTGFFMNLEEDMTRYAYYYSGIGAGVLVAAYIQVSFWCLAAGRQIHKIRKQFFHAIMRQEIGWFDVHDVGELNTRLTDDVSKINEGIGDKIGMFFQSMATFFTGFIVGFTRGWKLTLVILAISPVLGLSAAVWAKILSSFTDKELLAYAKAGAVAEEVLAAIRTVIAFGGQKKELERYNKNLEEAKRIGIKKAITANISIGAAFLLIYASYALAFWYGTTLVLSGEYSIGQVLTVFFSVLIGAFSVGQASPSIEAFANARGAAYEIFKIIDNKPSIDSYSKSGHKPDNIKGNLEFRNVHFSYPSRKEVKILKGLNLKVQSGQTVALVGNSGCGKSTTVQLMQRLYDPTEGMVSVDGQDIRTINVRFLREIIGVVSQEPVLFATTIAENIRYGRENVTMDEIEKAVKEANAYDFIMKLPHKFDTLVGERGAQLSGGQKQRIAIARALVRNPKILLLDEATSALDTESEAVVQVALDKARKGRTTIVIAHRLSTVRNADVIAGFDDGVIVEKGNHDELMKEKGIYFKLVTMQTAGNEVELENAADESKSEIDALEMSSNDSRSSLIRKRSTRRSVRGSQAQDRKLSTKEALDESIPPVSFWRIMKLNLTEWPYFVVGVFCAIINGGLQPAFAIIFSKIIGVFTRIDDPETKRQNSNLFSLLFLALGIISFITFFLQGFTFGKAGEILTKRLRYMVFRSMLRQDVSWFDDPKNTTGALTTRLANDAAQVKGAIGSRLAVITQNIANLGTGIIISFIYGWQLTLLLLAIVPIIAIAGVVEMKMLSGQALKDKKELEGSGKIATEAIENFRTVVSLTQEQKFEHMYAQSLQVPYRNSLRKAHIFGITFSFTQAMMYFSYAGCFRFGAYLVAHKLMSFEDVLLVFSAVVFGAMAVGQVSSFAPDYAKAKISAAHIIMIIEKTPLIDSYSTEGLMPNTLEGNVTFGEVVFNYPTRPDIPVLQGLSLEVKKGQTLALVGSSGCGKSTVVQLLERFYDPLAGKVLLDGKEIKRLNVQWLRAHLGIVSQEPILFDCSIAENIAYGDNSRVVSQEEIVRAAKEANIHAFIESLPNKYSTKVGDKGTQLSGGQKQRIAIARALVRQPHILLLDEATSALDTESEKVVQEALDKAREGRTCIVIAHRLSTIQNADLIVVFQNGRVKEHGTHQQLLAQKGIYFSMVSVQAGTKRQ

[23] = tested on: MCF7/ADM; test: Downregulation of p-gp level in human MCF7/ADM cells at 6.25 to 25 uM incubated for 24 hrs; format: functional, cell-based; details: dose 6.25-25 µM
[24] = tested on: A549/CDDP; test: Cytotoxicity against human A549/DDP cells at 100 uM incubated for 24 hrs; format: functional, cell-based
[25] = tested on: MCF7/ADM; test: Antitumor activity against human MCF7/ADM cells xenografted in BALB/c mouse assessed as reduction in p-110beta expression in tumor at 50 mg/kg, ip by Western blot analysis; format: functional, organism-based
[26] = tested on: MCF7/ADM; test: Antitumor activity against human MCF7/ADM cells xenografted in BALB/c mouse assessed as effect on PTEN expression in tumor at 50 mg/kg, ip by Western blot analysis; format: functional, organism-based
[27] = Toxicity in BALB/c mouse xenografted with human MCF7/ADM cells assessed as lung damage at 50 mg/kg, ip by H and E staining based analysis; format: organism-based; details: in vivo
[28] = Toxicity in BALB/c mouse xenografted with human MCF7/ADM cells assessed as change in HGB level at 50 mg/kg, ip; format: organism-based; details: in vivo
[29] = Toxicity in BALB/c mouse xenografted with human MCF7/ADM cells assessed as change in AST level at 50 mg/kg, ip; format: organism-based; details: in vivo
[30] = target: T1, von Hippel-Lindau disease tumor suppressor/Phosphatidylinositol 4,5-bisphosphate 3-kinase catalytic subunit beta isoform; test: PROTAC activity at PI3K-p110beta/VHL in human MCF7/ADM cells assessed as reduction in PI3K-p110beta level at 25 uM incubated for 24 hrs by Western blot analysis relative to control; format: cell-based; parameters: scale not given: the % may be the effect or the level left
Target sequence in this assay (P40337 whole entry, looked up, canonical isoform): as the sequence (P40337 whole entry, looked up, canonical isoform) above
Target sequence in this assay (P42338 whole entry, looked up, canonical isoform): as the sequence (P42338 whole entry, looked up, canonical isoform) above

[31] = target: T2, von Hippel-Lindau disease tumor suppressor/Phosphatidylinositol 4,5-bisphosphate 3-kinase catalytic subunit alpha isoform; test: PROTAC activity at PI3K-p110alpha/VHL in human MCF7/ADM cells assessed as reduction in PI3K-p110alpha level incubated for 24 hrs by Western blot analysis; format: cell-based; details: dose 0.04-50 µM
Target sequence in this assay (P40337 whole entry, looked up, canonical isoform): as the sequence (P40337 whole entry, looked up, canonical isoform) above
Target sequence in this assay (P42336 whole entry, looked up, canonical isoform): as the sequence (P42336 whole entry, canonical isoform) above

[32] = target: T1, von Hippel-Lindau disease tumor suppressor/Phosphatidylinositol 4,5-bisphosphate 3-kinase catalytic subunit beta isoform; test: PROTAC activity at PI3K-p110beta/VHL in human MCF7/ADM cells assessed as reduction in PI3K-p110beta level incubated for 24 hrs by Western blot analysis; format: cell-based; details: dose 0.04-50 µM
Target sequence in this assay (P40337 whole entry, looked up, canonical isoform): as the sequence (P40337 whole entry, looked up, canonical isoform) above
Target sequence in this assay (P42338 whole entry, looked up, canonical isoform): as the sequence (P42338 whole entry, looked up, canonical isoform) above

[33] = Induction of apoptosis in human MCF7/ADM cells at 6.25 uM incubated for 24 hrs by Annexin V-FITC/PI staining based flow cytometry analysis (reference value: 5.20%); format: functional
[34] = Induction of apoptosis in human MCF7/ADM cells at 25 uM incubated for 24 hrs by Annexin V-FITC/PI staining based flow cytometry analysis (reference value: 5.20%); format: functional
[35] = tested on: MCF7/ADM; test: Antitumor activity against human MCF7/ADM cells xenografted in BALB/c mouse assessed as reduction in tumor volume at 50 mg/kg, ip measured every 2 days in presence of Adriamycin; format: functional, organism-based; details: time 2.0 day

SMILES	Activity [2]	Activity [5]	Activity [6]	Activity [7]	pIC50 [8]	Activity [9]	Activity [10]	Activity [11]	Activity [12]	Activity [15]	Activity [16]	Activity [17]	Activity [18]	Activity [19]	Activity [20]	Activity [21]	inhibition (INH) [22]	Activity [23]	Activity [25]	Activity [26]	also measured
Cc1cc(C(C)Nc2ccccc2C(=O)NCCCCCCC(=O)N[C@H](C(=O)N2C[C@H](O)C[C@H]2C(=O)NCc2ccc(-c3scnc3C)cc2)C(C)(C)C)c2nc(N3CCOCC3)cc(=O)n2c1 (stereo not given in full)	Dose-dependent-effect	Active	Active	Active	4.41	Active	Active	Active	Active	Active	Active	Active	Active	Active	Active	Active	Active	Active	Active	inactive	Activity [1]: 88%; DC50 [2]: > 30 µM; DC50 [3]: 2190 nM; DC50 [4]: > 50 µM; Activity [13]: 8.73%; Activity [14]: 22.84%; Activity [24]: Active; Activity [27]: Non-toxic; Activity [28]: Non-toxic; Activity [29]: Non-toxic
Cc1cc(C(C)Nc2ccccc2C(=O)NCCOCCOCCC(=O)N[C@H](C(=O)N2C[C@H](O)C[C@H]2C(=O)NCc2ccc(-c3scnc3C)cc2)C(C)(C)C)c2nc(N3CCOCC3)cc(=O)n2c1 (stereo not given in full)	Dose-dependent-effect	Active	Active	Active	4.37	Active	Active	Active	Active	Active	Active	Active	Active	Active	Active	Active	Active	Active	Active	inactive	Activity [30]: 75%; Activity [31]: Dose-dependent-effect; Activity [32]: Dose-dependent-effect; Activity ([3]; dose 0.04-50 µM): Dose-dependent-effect; Activity [33]: 6.88%; Activity [34]: 26.66%; Activity [35]: Active; Activity [27]: Non-toxic; Activity [28]: Non-toxic; Activity [29]: Non-toxic
